Each structure is given as a SMILES string. Like-named read-outs stand apart in the source and are kept apart here.

Data set [1] deals with carrageenan-induced paw edema. Briefly: Carrageenan-induced acute inflammatory (paw edema) model. The data set is classed as in vivo, Sprague Dawley (SD) rats. The note with it: as compared to control (no treatment). On the procedure: Carrageenan-Induced Acute Inflammatory Model
The anti-inflammatory effect of the gel formulations was assessed using carrageenan-induced paw edema model (Whiteley and Dalrymple 1998, Lee and Crosby 1999, Sammons, Raval et al. 2000, Cong, Khaziakhmetova et al. 2015) using Sprague Dawley (SD) rats. This model was deduced suitable for the evaluation of anti-inflammatory and anti-hyperalgesic drugs (Whiteley and Dalrymple 1998, Lee and Crosby 1999, Sammons, Raval et al. 2000, Cong, Khaziakhmetova et al. 2015). Edema was induced in male Sprague Dawley (SD) rats by sub-plantar injection of 50 μL of 0.1% λ-carrageenan (22049 SIGMA λ-Carrageenan plant-mucopolysaccharide, Sigma-Aldrich) gel in nuclease free water into the left hind paw of the animals. The inventors evaluated the intensity, development, and duration of the induced inflammation by measurements of rat paw volume using a digital plethysmometer (LE 7500, Panlab, Harvard Apparatus). Measurements were made prior to edema induction (base-line volume) and at 1, 2, 4, 6, 8, 12, and 24 hrs after sub-plantar carrageenan injection. The intensity of inflammation was assessed by calculating the percentage of increase in paw volume against the base-line measurements. Animals were divided into 4 groups of 4 rats each; group 1: control (no treatment); group 2: CBD gel (Gel A); group 3: CBG gel (Gel I); and group 4: THCV gel (Gel J). […] Therefore, placebo gels were not considered in the study.

Data set [2] in a line: Pre-formulation solubility of CBD, THCV and CBG in solvents. The data set is classed as physicochemical. As to the method:
Pre-Formulation Studies: Solubility of CBD, THCV and CBG
The solubility of APIs including CBD, CBG and THCV was determined in various solvents including dimethyl sulfoxide (DMSO), N-Methyl-2-pyrrolidone (NMP), and PEG 400. Briefly, 100 mg of each API was dissolved in 0.5 ml of DMSO, NMP, PEG400 and vortexed until it dissolved completely. All the solutions were then visually observed for any undissolved particles. Further, all the solubility samples were centrifuged, and the supernatant were collected. Samples were then analyzed using HPLC for the amount of drug solubilized in each solvent.

The conditions of data set [3]: solution in propylene glycol, water and ethanol, Stinchcomb et al 2004, cited from earlier work.
A short description of data set [4]: In-vitro skin permeation study (IVPT), Franz diffusion cells. The settings on record: for cumulative drug permeation: end of 72 hrs. The data set is classed as in vitro ADME, Human. On the procedure:
In-Vitro Skin Permeation Study
The in-vitro permeation and deposition studies were performed under occlusive conditions using jacketed Franz diffusion cells with a 0.636 cm2 permeation area and 5 mL receptor chamber volume. Human skin used was obtained from The New York Fire Fighter's skin bank and originated from the right and left posterior leg regions. Dermatomed, cryopressed split thickness skin with epidermis and dermis were delivered in plastic bags and stored at −80° C. until further use.
Skin was thawed in water for 45 minutes and was cut into small pieces and mounted on Franz cells. Receptor medium containing PBS with 25% (v/v) ethanol and 5% (v/v) Tween 80 was used for the IVPT study. 0.01% (w/v) sodium azide was added in the receiving media and sonicated for 20 mins to degasify it. To ensure the absence of bubbles in the receptor chamber, each cell was turned upside down to allow release of air though the sampling port. The cells were then left to equilibrate for about 10 mins before application of hydrogel samples. To begin the permeation experiment, 0.2 mL samples of each formulation was pipetted onto the donor compartment. The donor compartment of each cell was sealed with parafilm and perforated with a needle and the fastened to the receiving compartment using a clamp. Following the completion of the experimental setup, the Franz diffusion cells were blanketed to prevent photo-degradation of samples and the system kept at 32.3° C. with the use of its circulating water bath to maintain the skin surface temperature of 32° C. throughout the duration of the experiment. A 72 hr experimentation duration was employed with sampling times set at 24 hr increments. 1 mL samples were withdrawn from the receptor chamber via the sampling port and analyzed by HPLC, and the entire remaining receiving media in the receptor chamber was discarded and replaced with a fresh batch. The cumulative amount of drug permeated through the skin per unit area (Qp) was calculated from drug concentration in the receptor fluid and plotted as a function of time. The steady-state flux (J) was determined as the slope of the linear portion of the plot.

The mark [5] stands for this setting: in DMSO, NMP, PEG 400 and lactic acid.

Consider `C=C(C)[C@@H]1CCC(C)=C[C@H]1c1c(O)cc(CCCCC)cc1O` [CBD, Cannabidiol, reference compound], for which the paw edema result in data set [1] was “significantly (p<0.0001) reduced”. Besides, the solubility result in data set [2] (setting [5]) is listed as “high solubility”. Also, the “cumulative amount of CBD permeation” value in data set [3] (end of 48 hrs) was ~78.61 µg. The maximum flux in data set [3] (48 hrs IVPT) is recorded as ~1.47 μg/cm^2/hr.

As for `CCCCCc1cc(O)c(C/C=C(\C)CCC=C(C)C)c(O)c1` [CBG, Cannabigerol], the paw edema result in data set [1] is “significantly (p<0.0001) reduced”. Besides, in data set [4] (24 hrs, human skin, gel 10% w/w), the “cumulative drug permeated in the receiving media” value is listed as “at least 136 μg/cm^2”. Also, the cumulative drug permeation result in data set [4] (human skin, gel 10% w/w) is recorded as “at least 321 μg/cm^2”. For the same molecule, in data set [2], the solubility entry is listed as “high solubility”.

Consider `CCCc1cc(O)c2c(c1)OC(C)(C)[C@@H]1CCC(C)=C[C@@H]21` [THCV, Tetrahydrocannabivarin], for which, in data set [1], the paw edema result is reported as “significantly (p<0.0001) reduced”. Also, in data set [4] (24 hours post administration), the drug permeation entry was “at least 843 g/cm^2”. The cumulative drug permeation entry in data set [4] (human skin, gel 10% w/w) was “at least 2124 μg/cm^2”. Also, the solubility result in data set [2] (setting [5]) is “high solubility”.

(Values after patent US12233043B1, “Method of transdermal delivery of cannabinoid compositions” (Florida A&M University, priority 2022, dated 2025).)
